Where two headings read alike, the source gives them in different places. Starred links: 1 amine or outer side, 2 acyl side, 3 side chain; linkers in the order of their positions; H or OH if unused. Positions of bridges follow the written chain, without caps; N, C: chain ends. Non-standard residues stand in square brackets, D forms with d. Residues, ends and D or L forms follow the SMILES beside them. *: point of attachment. Perfluorobiphenyl(4,4') = Fc1c(F)c([*:1])c(F)c(F)c1-c1c(F)c(F)c([*:2])c(F)c1F; Biotin = O=C1N[C@H]2[C@H](CS[C@H]2CCCCC(=O)*)N1
How the values were obtained:
M2 macrophages [1] = test: Binding study of biotinylated peptides on polarized bone marrow-derived macrophages (streptavidin-FITC, flow cytometry); assay type: cell-based, mouse; details: for Kd: M2 macrophages, half-maximal MFI, read-out: apparent dissociation constant (KD); for binding activity to M2 macrophages (in words): biotinylated peptide, on ice 20 min
Experimental: All animal handling protocols were approved by the University of Washington Institutional Animal Care and Use Committee. Bone marrow harvest was performed following the previously reported protocol. Briefly, femur and tibia were excised from 6-8 week-old female c57bl6/027 mice. Cuts were made on the ends of each bone, and RPMI 1640 medium was used to flush out bone marrow cells via 18G needle. The cells were cultured on petri dishes in RPMI 1640 medium supplemented with 20% donor horse serum, 1% antibiotic-antimycotic (AbAm), and 20 ng/mL M-CSF. After 7 d of culture, macrophages were activated by replacing M-CSF with 25 ng/mL IFN-γ and 100 ng/mL LPS for M1 macrophage or 25 ng/mL IL-4 for M2 macrophage. The macrophages were activated for 2 d and then scraped off the petri dishes with cell lifter for binding studies.
(§1) Peptide solutions at different concentrations for binding study were prepared by dilutions from the stock solution (10 mg/mL in dH2O) with PBS containing 1% BSA (PBSA). M1 and M2 macrophages (50,000 cells/well) were seeded on a black 96-well plate and incubated in the peptide solutions on ice for 20 min. Unbound peptides were washed off with PBSA twice. The macrophages were subsequently incubated with streptavidin-FITC for 15 min on ice to probe for the bound peptides. Excess streptavidin-FITC was washed off with PBSA twice, and the macrophages were then resuspended in PBS for analysis by MACSQuant Flow Cytometer (Miltenyi Biotec, San Diego, Calif.). Propidium iodide was added to the samples before the data acquisition to discriminate dead cells. Flow cytometry data were analyzed with FlowJo Analysis Software (Tree Star, Ashland, Oreg.). Binding study of peptides post serum incubation was similarly performed with the following additions: The peptides (5 mM stock solution in H2O) were diluted in serum to a final concentration of 0.5 mM and incubated at 37° C. in an incubator. At each time point, an aliquot of the peptides was drawn and diluted in PBS to the final concentration for the binding study. The diluted aliquot was heated at 80° C. for 30 min to inactivate serum proteins, stored in a −20° C. freezer, and thawed for use in the binding study after aliquots at all time points were collected.
All animal handling protocols were approved by the University of Washington Institutional Animal Care and Use Committee. Bone marrow-derived cells were harvested from female c57bl/6 mice as previously described. In brief, femurs and tibias of the mice were excised and flushed with RPMI 1640 medium via an 18G needle. The cells were cultured on petri dishes containing RPMI 1640 medium supplemented with 20% donor horse serum, 1% antibioticantimycotic (AbAm), and 20 ng/mL M-CSF. After 7 d in culture, the medium was replaced with an activation medium whereby M-CSF was replaced with 25 ng/mL IFN-γ and 100 ng/mL LPS for M1 activation or with 25 ng/mL IL-4 for M2 activation. For M1 activation medium, AbAm was replaced with 1% penicillin-streptomycin (Pen-Strep). After 2 d of activation, the activated macrophages were scraped off the petri dishes for binding studies.
Biotinylated peptide stock solutions were prepared in H2O at 10 mg/mL concentration and quantified for the exact concentration using Quant*Tag Biotin quantification kit. The stock solutions were diluted in PBS with 1% BSA (PBSA) to different concentrations for binding studies. Activated macrophages were seeded on a black 96-well plate (50,000 cells/well) and incubated with the peptide solutions for 20 min on ice. The cells were washed twice with PBSA and subsequently incubated with streptavidin-FITC for 15 min on ice. After two additional washes, the cells were resuspended in PBS for analysis via MACSQuant Flow Cytometer (Miltenyi Biotec, San Diego, Calif.). Propidium iodide (PI) was added before running each sample to assess for cell viability. Data analysis was processed on FlowJo Analysis Software (Tree Star, Ashland, Oreg.). […]

M2 macrophages [2] = test: Binding of M2pep analogs post serum incubation; assay type: cell-based, mouse; details: for decline in binding activity with serum pre-incubation: 150 μM of M2pepBiotin, 50 μM of AcM2pep(RY)Biotin and cyclic M2pep(RY)Biotin, mouse serum 37° C.
Experimental: as §1
For TAM targeting applications, M2pep analogs will be exposed to serum during systemic circulation. Therefore, we next studied how the serum stability of M2pep analogs affects subsequent binding to target cells. Peptides were incubated with mouse serum at 37° C. to mimic peptidase exposure in systemic circulation, and aliquots of the serum were withdrawn at various time points for binding studies with polarized macrophages. In general, binding activity of the M2pep analogs corresponded with the peptides' serum stability (FIG. 6). […]

[3] = Serum stability study in normal mouse serum, analysis by MALDI-TOF MS; details: for overall serum stability (in words): MALDI-TOF MS
Experimental: The peptide of interest (30 μL of 10 mg/mL stock solution in dH2O) was added to normal mouse serum (300 μL) and incubated at 37° C. in an incubator. At each time point, an aliquot of 40 μL was drawn and an equal volume of ACN was added to the aliquot to precipitate serum proteins. The cloudy mixture was centrifuged at 10,000 rpm for 5 min and then supernatant removed. A solution of 1:1 H2O/ACN (80 μL) was added to the pellet and sonicated for 10 min to further extract the remaining peptides. This resuspended mixture was then centrifuged, and the supernatant was pooled with the former and vacuum-dried on a Speedvac machine. The dried pellet was solubilized in H2O (50 μL) by sonication for 10 min. The mixture was then centrifuged, and the supernatant was drawn and analyzed by MALDI-TOF MS.
To evaluate serum stability of M2pep, the peptide was incubated in mouse serum, and aliquots of the serum at various time points were withdrawn for analysis of degradation patterns by MALDI-TOF MS.
Different M2pep analogs (30 μL from 10 mg/mL stock solution in H2O) were incubated in normal mouse serum (300 μL) at 37° C. in an incubator. An aliquot of the serum (40 μL) was drawn at different time intervals and precipitated with an equal volume of cold ACN. The mixture was centrifuged at 15,000 rpm for 5 min, and the supernatant was collected. A solution of H2O/ACN (1:1 v/v, 80 μL) was added to the pellet with a 10-min sonication to further extract residual peptides. The mixture was then centrifuged. The supernatant was pooled with the former and dried under vacuum on a Speedvac machine. The peptide pellet was resuspended in H2O (50 μL) with a 10-min sonication before analysis by MALDI-ToF MS.

[4] = Solubility of cyclized peptide analogs

CC(C)[C@@H]1NC(=O)CNC(=O)[C@H](Cc2c[nH]c3ccccc23)NC(=O)[C@@H]2CCCN2C(=O)[C@H](CC(=O)O)NC(=O)[C@H](CCC(N)=O)NC(=O)[C@H](CCC(=O)O)NC(=O)[C@H](Cc2ccc(O)cc2)NC(=O)CNC(=O)[C@@H](N)CSSC[C@@H](C(=O)N[C@H](CCCCN)C(=O)N[C@H](CCCCN)C(=O)N[C@H](CCCCN)C(=O)N[C@@H](CCCCNC(=O)CCCC[C@@H]2SC[C@@H]3NC(=O)N[C@@H]32)C(N)=O)NC(=O)CNC(=O)[C@H](Cc2ccc(O)cc2)NC(=O)[C@H](Cc2c[nH]c3ccccc23)NC(=O)[C@H](Cc2ccc(O)cc2)NC(=O)[C@H](CCCNC(=N)N)NC1=O [cyclic M2pep(RY)Biotin, CGYEQDPWGVRYWYGCkkk] (H-CGYEQDPWGVRYWYGC[dK][dK][dK]K(Biotin)-NH2; disulfide 1-16)
Kd (M2 macrophages [1]; listed as disulfide-cyclized M2pep(RY)): 36.3 µM
binding activity to M2 macrophages (in words) (M2 macrophages [1]): comparable binding activity to the linear AcM2pep(RY)Biotin
decline in binding activity with serum pre-incubation (M2 macrophages [2]): least decline
binding activity after 24 h serum incubation (M2 macrophages [2]; 24 h in mouse serum at 37° C.): retained the highest binding activity
serum incubation time at which the peptide remained detectable by MALDI-TOF MS ([3]; mouse serum, 37° C.): ≥ 48 h
time without endolytic cleavage at the W10/W11 site ([3]; mouse serum, 37° C.): at least 8 h
overall serum stability (in words) ([3]; mouse serum, 37° C.): markedly improved serum stability over the linear AcM2pep(RY)Biotin
incubation in mouse serum after which the cyclized peptide was eventually degraded ([3]; prolonged incubation in mouse serum): more than 1 day

CC(C)[C@@H]1NC(=O)CNC(=O)[C@H](Cc2c[nH]c3ccccc23)NC(=O)[C@@H]2CCCN2C(=O)[C@H](CC(=O)O)NC(=O)[C@H](CCC(N)=O)NC(=O)[C@H](CCC(=O)O)NC(=O)[C@H](Cc2ccc(O)cc2)NC(=O)CNC(=O)[C@@H](N)CSc2c(F)c(F)c(c(F)c2F)-c2c(F)c(F)c(c(F)c2F)SC[C@@H](C(=O)N[C@H](CCCCN)C(=O)N[C@H](CCCCN)C(=O)N[C@H](CCCCN)C(=O)N[C@@H](CCCCNC(=O)CCCC[C@@H]2SC[C@@H]3NC(=O)N[C@@H]32)C(N)=O)NC(=O)CNC(=O)[C@H](Cc2ccc(O)cc2)NC(=O)[C@H](Cc2c[nH]c3ccccc23)NC(=O)[C@H](Cc2ccc(O)cc2)NC(=O)[C@H](CCCNC(=N)N)NC1=O [DFBP-cyclized M2pep(RY)Biotin] (H-CGYEQDPWGVRYWYGC[dK][dK][dK]K(Biotin)-NH2; linker 1-16 via Perfluorobiphenyl(4,4'))
solubility (in words) [4]: higher solubility than FF-cyclized M2pep(RY)Biotin

CC(=O)N[C@@H](Cc1ccc(O)cc1)C(=O)N[C@@H](CCC(=O)O)C(=O)N[C@@H](CCC(N)=O)C(=O)N[C@@H](CC(=O)O)C(=O)N1CCC[C@H]1C(=O)N[C@@H](Cc1c[nH]c2ccccc12)C(=O)NCC(=O)N[C@H](C(=O)N[C@@H](CCCCN)C(=O)N[C@H](Cc1c[nH]c2ccccc12)C(=O)N[C@@H](Cc1c[nH]c2ccccc12)C(=O)N[C@@H](Cc1ccc(O)cc1)C(=O)NCC(=O)NCC(=O)NCC(=O)N[C@@H](CO)C(=O)N[C@@H](CCCCN)C(=O)N[C@@H](CCCCN)C(=O)N[C@@H](CCCCN)C(=O)N[C@@H](CCCCNC(=O)CCCC[C@@H]1SC[C@@H]2NC(=O)N[C@@H]21)C(N)=O)C(C)C [W10w, Ac-YEQDPWGVKwWYGGGSKKK]
binding activity to M2 macrophages (in words) (M2 macrophages [1]): abrogated binding activity
serum stability at the W10/W11 endolytic cleavage site ([3]; mouse serum): effective protection against endolytic cleavage at the W10/W11 site

CC(=O)N[C@@H](Cc1ccc(O)cc1)C(=O)N[C@@H](CCC(=O)O)C(=O)N[C@@H](CCC(N)=O)C(=O)N[C@@H](CC(=O)O)C(=O)N1CCC[C@H]1C(=O)N[C@@H](Cc1c[nH]c2ccccc12)C(=O)NCC(=O)N[C@H](C(=O)N[C@@H](CCCCN)C(=O)N1CCC[C@H]1C(=O)N[C@@H](Cc1c[nH]c2ccccc12)C(=O)N[C@@H](Cc1ccc(O)cc1)C(=O)NCC(=O)NCC(=O)NCC(=O)N[C@@H](CO)C(=O)N[C@H](CCCCN)C(=O)N[C@H](CCCCN)C(=O)N[C@H](CCCCN)C(=O)N[C@@H](CCCCNC(=O)CCCC[C@@H]1SC[C@@H]2NC(=O)N[C@@H]21)C(N)=O)C(C)C [W10P, Ac-YEQDPWGVKPWYGGGSkkk] (Ac-YEQDPWGVKPWYGGGS[dK][dK][dK]K(Biotin)-NH2)
binding activity to M2 macrophages (in words) (M2 macrophages [1]): abrogated the binding activity
serum stability at the W10/W11 endolytic cleavage site ([3]; mouse serum): did not confer protection at the W10/W11 site

CC(=O)N[C@@H](Cc1ccc(O)cc1)C(=O)N[C@@H](CCC(=O)O)C(=O)N[C@@H](CCC(N)=O)C(=O)N[C@@H](CC(=O)O)C(=O)N1CCC[C@H]1C(=O)N[C@@H](Cc1c[nH]c2ccccc12)C(=O)NCC(=O)N[C@H](C(=O)N[C@@H](CCCNC(=N)N)C(=O)N[C@@H](Cc1c[nH]c2ccccc12)C(=O)N[C@@H](Cc1c[nH]c2ccccc12)C(=O)N[C@@H](Cc1ccc(O)cc1)C(=O)NCC(=O)NCC(=O)NCC(=O)N[C@@H](CO)C(=O)N[C@@H](CCCCN)C(=O)N[C@@H](CCCCN)C(=O)N[C@@H](CCCCN)C(=O)N[C@@H](CCCCNC(=O)CCCC[C@@H]1SC[C@@H]2NC(=O)N[C@@H]21)C(N)=O)C(C)C [K9R, Ac-YEQDPWGVRWWYGGGSKKK]
binding activity to M2 macrophages (in words) (M2 macrophages [1]): significantly increased binding activity
serum stability at the W10/W11 endolytic cleavage site ([3]; mouse serum): did not confer protection at the W10/W11 site

CC(=O)N[C@@H](Cc1ccc(O)cc1)C(=O)N[C@@H](CCC(=O)O)C(=O)N[C@@H](CCC(N)=O)C(=O)N[C@@H](CC(=O)O)C(=O)N1CCC[C@H]1C(=O)N[C@@H](Cc1c[nH]c2ccccc12)C(=O)NCC(=O)N[C@H](C(=O)N[C@@H](CCCNC(=N)N)C(=O)N[C@@H](Cc1ccc(O)cc1)C(=O)N[C@@H](Cc1c[nH]c2ccccc12)C(=O)N[C@H](Cc1ccc(O)cc1)C(=O)NCC(=O)NCC(=O)NCC(=O)N[C@@H](CO)C(=O)N[C@H](CCCCN)C(=O)N[C@H](CCCCN)C(=O)N[C@H](CCCCN)C(=O)N[C@@H](CCCCNC(=O)CCCC[C@@H]1SC[C@@H]2NC(=O)N[C@@H]21)C(N)=O)C(C)C [Y12y, Ac-YEQDPWGVRYWyGGGSkkk] (Ac-YEQDPWGVRYW[dY]GGGS[dK][dK][dK]K(Biotin)-NH2)
binding activity to M2 macrophages (in words) (M2 macrophages [1]): reduced binding activity
serum stability at the W10/W11 endolytic cleavage site ([3]; mouse serum): did not improve serum stability at the W10/W11 site

CC(C)[C@H](NC(=O)CNC(=O)[C@H](Cc1c[nH]c2ccccc12)NC(=O)[C@@H]1CCCN1C(=O)[C@H](CC(=O)O)NC(=O)[C@H](CCC(N)=O)NC(=O)[C@H](CCC(=O)O)NC(=O)[C@@H](N)Cc1ccc(O)cc1)C(=O)N[C@@H](CCCCN)C(=O)N[C@@H](Cc1c[nH]c2ccccc12)C(=O)N[C@@H](Cc1c[nH]c2ccccc12)C(=O)N[C@@H](Cc1ccc(O)cc1)C(=O)NCC(=O)NCC(=O)NCC(=O)N[C@@H](CO)C(=O)N[C@@H](CCCCN)C(=O)N[C@@H](CCCCN)C(=O)N[C@@H](CCCCNC(=O)CCCC[C@@H]1SC[C@@H]2NC(=O)N[C@@H]21)C(N)=O [M2pepBiotin, YEQDPWGVKWWYGGGSKK]
Kd (M2 macrophages [1]): 220 µM
decline in binding activity with serum pre-incubation (M2 macrophages [2]): fastest and greatest decline in binding activity
overall serum stability (in words) ([3]; mouse serum, 37° C.): Poor serum stability
